{"source": "patent US10716821B2", "about": "“Use of plant extracts against herpes simplex virus” (UNIVERSITÉ DU QUÉBEC À CHICOUTIMI, priority 2013, dated 2020)", "tested_on": "HSV-1", "assay": "HSV-1 plaque reduction, method D: replication period", "assay_type": "cell-based, herpes simplex virus type-1", "protocol": "Plaque assays were performed with monolayer cultures of Vero cells in 24-well culture plates. For plaque reduction assay, cell monolayer was infected with virus (30 pfu/well) and incubated at 37° C. with 5% CO2 for one hour. The infected cell monolayer was then washed with PBS and overlaid with overlapping solution (maintenance medium containing 1% methylcellulose and various concentrations of indicated compounds). After 72 h of incubation at 37° C., cell monolayer was fixed with 5% paraformaldehyde and stained with 0.8% crystal violet. Plaques were counted and the percentage of inhibition was calculated as [(Pc−Pe)/Pc]100, where Pc and Pe refer to the plaque number in the absence and presence of the compound, respectively. The minimal concentration of compounds required to reduce 50% of plaque numbers (IC50) was also calculated. Cells and viruses (HSV-1) were incubated with acyclovir and various extracts at different stages during the viral infection cycle in order to determine the antiviral action mode (Koch et al., 2008). (A) For virus pretreatment assay, the virus suspension was incubated in a medium containing different concentrations of the extracts for one hour at 37° C. prior to infection of Vero cells. […] The antiviral activity of non-cytotoxic plant extracts was determined against HSV-1 in vitro. […] Then, the cells were washed and quantified using resazurin."}
{"smiles": "Nc1nc2c(ncn2COCCO)c(=O)[nH]1", "note": "[Acyclovir]", "values": [{"measurement": "inhibition at 100 µg/mL", "setting": "Human alphaherpesvirus 1, 72 h, at 100 μg/ml, replication period (extracts added after infection, stay 3 days on cells), Vero cells, read-out: Inhibitory percentage of lysis plaques, D", "value": 100, "unit": "%"}, {"measurement": "Protection of VERO cells against infection (positive control)", "setting": "dose of 0.75 μg/ml", "value": "protects VERO cells against infection"}]}
